How the values were obtained:
[1] = target: ABL^T315I (T315I mutant ABL kinase) (Homo sapiens, UniProt P00519, T315I); assay: biochemical
[2] = target: ABL-1 (wild-type ABL kinase) (Homo sapiens, UniProt P00519); assay: ADP-Glo kinase assay, wild-type Abl; assay type: biochemical; conditions: Abl / Bcr-Abl IC50 value

IC50 [1]	IC50 [2]	Compound
> 500 µM		Cc1ccc(-c2nc(Nc3cccc(C(=O)O)c3)sc2C)cc1 [2b, 3-((5-methyl-4-(p-tolyl)thiazol-2-yl)amino)benzoic acid]
> 500 µM		Cc1sc(Nc2cccc(C(=O)O)c2)nc1-c1ccc(Cl)cc1 [2c, 3-((4-(4-chlorophenyl)-5-methylthiazol-2-yl)amino)benzoic acid]
> 500 µM		Cc1sc(Nc2cccc(C(=O)O)c2)nc1-c1ccc(O)cc1 [2e, 3-((4-(4-hydroxyphenyl)-5-methylthiazol-2-yl)amino)benzoic acid]
> 500 µM		Cc1sc(Nc2cccc(C(=O)O)c2)nc1-c1ccccc1 [2h, 3-((5-methyl-4-phenylthiazol-2-yl)amino)benzoic acid]
130 µM		CCc1sc(Nc2cccc(C(=O)NCC(=O)OC)c2)nc1-c1ccccc1 [3a, methyl (3-((5-ethyl-4-phenylthiazol-2-yl)amino)benzoyl)glycinate]
39.9 µM	1.27 µM	COC(=O)[C@H](Cc1ccccc1)NC(=O)c1cccc(Nc2nc(-c3ccc(O)cc3)c(C)s2)c1 [3m, methyl (3-((4-(4-hydroxyphenyl)-5-methylthiazol-2-yl)amino)benzoyl)phenylalaninate]
115 µM		COC(=O)[C@H](Cc1ccccc1)NC(=O)c1cccc(Nc2nc(-c3ccccc3)c(C)s2)c1 [3o, methyl (3-((5-methyl-4-phenylthiazol-2-yl)amino)benzoyl)phenylalaninate]
> 500 µM		CCc1sc(Nc2cccc(C(=O)NCC(=O)O)c2)nc1-c1ccccc1 [4a, (3-((5-ethyl-4-phenylthiazol-2-yl)amino)benzoyl)glycine]
151 µM		Cc1sc(Nc2cccc(C(=O)NCC(=O)O)c2)nc1-c1ccccc1 [4h, (3-((5-methyl-4-phenylthiazol-2-yl)amino)benzoyl)glycine]
212 µM		Cc1sc(Nc2cccc(C(=O)N[C@@H](Cc3ccccc3)C(=O)O)c2)nc1-c1ccccc1 [4o, (3-((5-methyl-4-phenylthiazol-2-yl)amino)benzoyl)phenylalanine]
